Measured values published in patent US20020031795A1, “Nitrocoumarins for detecting all micro-organisms” (priority 1998, published 2002).

Experiments:
[1] = test system: E. coli (NCTC strain 10418); test: Fluorescent signal generated by E. coli reducing nitrocoumarins (nitroaryl reductase activity); format: cell-based, Escherichia coli; details: 0.105 mmol/l; for Extent of reduction of the substrate (in words): end of the four-hour assay
Method: (§1) A sample of the 7-nitrocoumarin derivative is dissolved in 4 ml of hot, distilled water. The mass dissolved to make the stock solution is such that the final concentration of the compound in the assay is 0.105 mmol/l. This solution is added to 96 ml of Mueller-Hinton broth and the mixture is sterile-filtered.
(§2) The E. coli was grown for 24 hours at 35° C. on Columbia agar supplemented with sheep blood. The bacteria were then resuspended in sterile, distilled water and their density was adjusted to 0.5 on the MacFarland scale (i.e. about 10^8 cells/ml). This suspension was then diluted 100-fold in sterile Mueller-Hinton broth (i.e. to a final density of about 10^6 cells/ml).
(§3) Fifty microliters of each nitrocoumarin solution plus 50 μl of bacterial suspension were then added to the wells of a microtiter plate. The plates were incubated at 35° C. and the optical density and fluorescence of each well was read every 30 min for a total of 4 hours. Optical density (690 nm) readings were made using an Anthos 2001 spectrophotometer (Labtech International Limited), and fluorescence (excitation at 365 nm and emission at 440 nm) readings were made on a Biolite F1 2001 fluorometer (Labtech International Limited).
(§4) The effect of the concentration of 7-nitrocoumarin-3-carboxylic acid on the sensitivity of the assay to detect E. coli (NCTC strain 10418) was investigated at concentrations of the indicator ranging from 0 to 0.262 mmol/l. All other conditions were identical to those described in section A above.

[2] = test system: Escherichia coli (NCTC 10418); test: Growth of E. coli in Mueller-Hinton broth in the presence of nitrocoumarins (optical density 690 nm); format: cell-based; details: 0.105 mmol/l
Method: as §1, §2, §3, §4

Compound `CC(=O)c1c(C)c2ccc([N+](=O)[O-])cc2oc1=O` [3-acetyl-4-methyl-7-nitrocoumarin] has a Fluorescent signal ([1]; 0 min) of 0, a Fluorescent signal ([1]; 30 min) of 40 and a Fluorescent signal ([1]; 60 min) of 390. It also gave a Fluorescent signal ([1]; 90 min) of 992, a Fluorescent signal ([1]; 120 min) of 1804 and a Fluorescent signal ([1]; 150 min) of 2811. It also gave a Fluorescent signal ([1]; 180 min) of 4090, a Fluorescent signal ([1]; 210 min) of 5576 and a Fluorescent signal ([1]; 240 min) of 8017. For the same compound, the “Optical density (690 nm)” value ([2]; 0 min) was 0.000, the “Optical density (690 nm)” value ([2]; 30 min) was −0.003 and the “Optical density (690 nm)” value ([2]; 60 min) was −0.002. The “Optical density (690 nm)” value ([2]; 90 min) was −0.001, the “Optical density (690 nm)” value ([2]; 120 min) was 0.002 and the “Optical density (690 nm)” value ([2]; 150 min) was 0.008. For the same compound, the “Optical density (690 nm)” value ([2]; 180 min) was 0.023, the “Optical density (690 nm)” value ([2]; 210 min) was 0.051 and the “Optical density (690 nm)” value ([2]; 240 min) was 0.110.
For `CCCC(=O)c1cc2ccc([N+](=O)[O-])cc2oc1=O` [3-butyryl-7-nitrocoumarin], the Fluorescent signal ([1]; 0 min) was 0, the Fluorescent signal ([1]; 30 min) was 64 and the Fluorescent signal ([1]; 60 min) was 387. For the same compound, the Fluorescent signal ([1]; 90 min) was 894, the Fluorescent signal ([1]; 120 min) was 1538 and the Fluorescent signal ([1]; 150 min) was 2344. The Fluorescent signal ([1]; 180 min) was 3329, the Fluorescent signal ([1]; 210 min) was 4642 and the Fluorescent signal ([1]; 240 min) was 6845. The “Extent of reduction of the substrate (in words)” value [1] was “least reduced”, the “Inhibitory effect on the growth of E. coli (in words)” value [2] was “most powerful inhibitors” and the “Optical density (690 nm)” value ([2]; 0 min) was 0.000. For the same compound, the “Optical density (690 nm)” value ([2]; 30 min) was 0.001, the “Optical density (690 nm)” value ([2]; 60 min) was 0.005 and the “Optical density (690 nm)” value ([2]; 90 min) was 0.007. The “Optical density (690 nm)” value ([2]; 120 min) was 0.009, the “Optical density (690 nm)” value ([2]; 150 min) was 0.012 and the “Optical density (690 nm)” value ([2]; 180 min) was 0.015. For the same compound, the “Optical density (690 nm)” value ([2]; 210 min) was 0.039 and the “Optical density (690 nm)” value ([2]; 240 min) was 0.096.
`Cc1cc(=O)oc2cc([N+](=O)[O-])ccc12` [4-methyl-7-nitrocoumarin] showed a Fluorescent signal ([1]; 0 min) of 0, a Fluorescent signal ([1]; 30 min) of 15 and a Fluorescent signal ([1]; 60 min) of 302. For the same compound, the Fluorescent signal ([1]; 90 min) was 974, the Fluorescent signal ([1]; 120 min) was 2008 and the Fluorescent signal ([1]; 150 min) was 3299. The Fluorescent signal ([1]; 180 min) was 5097, the Fluorescent signal ([1]; 210 min) was 7545 and the Fluorescent signal ([1]; 240 min) was 11125. The “Optical density (690 nm)” value ([2]; 0 min) was 0.000, the “Optical density (690 nm)” value ([2]; 30 min) was 0.000 and the “Optical density (690 nm)” value ([2]; 60 min) was 0.002. The “Optical density (690 nm)” value ([2]; 90 min) was 0.004, the “Optical density (690 nm)” value ([2]; 120 min) was 0.010 and the “Optical density (690 nm)” value ([2]; 150 min) was 0.024. For the same compound, the “Optical density (690 nm)” value ([2]; 180 min) was 0.055, the “Optical density (690 nm)” value ([2]; 210 min) was 0.113 and the “Optical density (690 nm)” value ([2]; 240 min) was 0.175.
With `O=C(c1cc2ccc([N+](=O)[O-])cc2oc1=O)N1CCOCC1` [7-nitrocoumarin-3-carboxymorpholide] the Fluorescent signal ([1]; 0 min) was 0, the Fluorescent signal ([1]; 30 min) was 180 and the Fluorescent signal ([1]; 60 min) was 665. For the same compound, the Fluorescent signal ([1]; 90 min) was 1376, the Fluorescent signal ([1]; 120 min) was 2414 and the Fluorescent signal ([1]; 150 min) was 3796. It also gave a Fluorescent signal ([1]; 180 min) of 5817, a Fluorescent signal ([1]; 210 min) of 8454 and a Fluorescent signal ([1]; 240 min) of 12263. The “Optical density (690 nm)” value ([2]; 0 min) was 0.000, the “Optical density (690 nm)” value ([2]; 30 min) was −0.002 and the “Optical density (690 nm)” value ([2]; 60 min) was −0.001. For the same compound, the “Optical density (690 nm)” value ([2]; 90 min) was 0.001, the “Optical density (690 nm)” value ([2]; 120 min) was 0.005 and the “Optical density (690 nm)” value ([2]; 150 min) was 0.014. The “Optical density (690 nm)” value ([2]; 180 min) was 0.037, the “Optical density (690 nm)” value ([2]; 210 min) was 0.068 and the “Optical density (690 nm)” value ([2]; 240 min) was 0.109.
Compound `O=c1ccc2ccc([N+](=O)[O-])cc2o1` [7-nitrocoumarin] has a Fluorescent signal ([1]; 0 min) of 0, a Fluorescent signal ([1]; 30 min) of 77 and a Fluorescent signal ([1]; 60 min) of 519. It also gave a Fluorescent signal ([1]; 90 min) of 1447, a Fluorescent signal ([1]; 120 min) of 2915 and a Fluorescent signal ([1]; 150 min) of 4713. The Fluorescent signal ([1]; 180 min) was 7160, the Fluorescent signal ([1]; 210 min) was 10182 and the Fluorescent signal ([1]; 240 min) was 14189. For the same compound, the “Optical density (690 nm)” value ([2]; 0 min) was 0.000, the “Optical density (690 nm)” value ([2]; 30 min) was −0.002 and the “Optical density (690 nm)” value ([2]; 60 min) was 0.000. For the same compound, the “Optical density (690 nm)” value ([2]; 90 min) was 0.002, the “Optical density (690 nm)” value ([2]; 120 min) was 0.009 and the “Optical density (690 nm)” value ([2]; 150 min) was 0.025. For the same compound, the “Optical density (690 nm)” value ([2]; 180 min) was 0.072, the “Optical density (690 nm)” value ([2]; 210 min) was 0.133 and the “Optical density (690 nm)” value ([2]; 240 min) was 0.211.
In the case of `CCOC(=O)c1cc2ccc([N+](=O)[O-])cc2oc1=O` [ethyl-7-nitrocoumarin-3-carboxylate], the Fluorescent signal ([1]; 0 min) is reported as 0, the Fluorescent signal ([1]; 30 min) is reported as 173 and the Fluorescent signal ([1]; 60 min) is reported as 814. It also gave a Fluorescent signal ([1]; 90 min) of 1703, a Fluorescent signal ([1]; 120 min) of 2813 and a Fluorescent signal ([1]; 150 min) of 4126. It also gave a Fluorescent signal ([1]; 180 min) of 5646, a Fluorescent signal ([1]; 210 min) of 7370 and a Fluorescent signal ([1]; 240 min) of 10859. For the same compound, the “Optical density (690 nm)” value ([2]; 0 min) was 0.000, the “Optical density (690 nm)” value ([2]; 30 min) was −0.005 and the “Optical density (690 nm)” value ([2]; 60 min) was −0.008. For the same compound, the “Optical density (690 nm)” value ([2]; 90 min) was −0.008, the “Optical density (690 nm)” value ([2]; 120 min) was −0.006 and the “Optical density (690 nm)” value ([2]; 150 min) was 0.000. For the same compound, the “Optical density (690 nm)” value ([2]; 180 min) was 0.018, the “Optical density (690 nm)” value ([2]; 210 min) was 0.046 and the “Optical density (690 nm)” value ([2]; 240 min) was 0.116.
For `COC(=O)c1cc2ccc([N+](=O)[O-])cc2oc1=O` [methyl-7-nitrocoumarin-3-carboxylate], the Fluorescent signal ([1]; 0 min) was 0, the Fluorescent signal ([1]; 30 min) was 174 and the Fluorescent signal ([1]; 60 min) was 702. For the same compound, the Fluorescent signal ([1]; 90 min) was 1297, the Fluorescent signal ([1]; 120 min) was 2035 and the Fluorescent signal ([1]; 150 min) was 2905. It also gave a Fluorescent signal ([1]; 180 min) of 3946, a Fluorescent signal ([1]; 210 min) of 5005 and a Fluorescent signal ([1]; 240 min) of 6668. For the same compound, the “Extent of reduction of the substrate (in words)” value [1] was “least reduced”, the “Inhibitory effect on the growth of E. coli (in words)” value [2] was “most powerful inhibitors” and the “OD readings reduced compared with the untreated control” value [2] was 92%. The “Optical density (690 nm)” value ([2]; 0 min) was 0.000, the “Optical density (690 nm)” value ([2]; 30 min) was −0.001 and the “Optical density (690 nm)” value ([2]; 60 min) was −0.001. The “Optical density (690 nm)” value ([2]; 90 min) was 0.000, the “Optical density (690 nm)” value ([2]; 120 min) was 0.000 and the “Optical density (690 nm)” value ([2]; 150 min) was 0.002. The “Optical density (690 nm)” value ([2]; 180 min) was 0.006, the “Optical density (690 nm)” value ([2]; 210 min) was 0.014 and the “Optical density (690 nm)” value ([2]; 240 min) was 0.032.
